Activity calls are given as the source filed them.
Columns and labels:
[1] = target: Protein Wnt-3a (Mus musculus, UniProt P27467); experiment: antagonism of Wnt3a pathway luciferase reporter – Wnt-LIGHT cells, luminescence, selectivity assay for Gli-SUFU antagonist project, dose response (AID 651570); type: functional; settings: read-out: IC50_Mean;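 also: Wnt-LIGHT reporter cells stimulated with conditioned medium from Wnt3a-producing cells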
[2] = loss of viability in HepG2 cells – cell-based, CellTiter-Glo, cherry-picked, cytotoxicity control for Shn3 inhibitor project, dose response (AID 624134); type: functional
[3] = reduction of Shn3 3'UTR-driven luciferase in osteoblasts – cell-based, Clone20 osteoblasts, firefly luciferase, cherry-picked, dose response (AID 624132); type: functional;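 also: firefly luciferase luminescence from reporter carrying the Shn3 3'UTR in osteoblasts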
[4] = non-specific 3'UTR reporter inhibition in Clone20-Shn3RL – cell-based, Renilla luciferase, cherry-picked, counter-screen for Shn3 inhibitor project, dose response (AID 624133); type: functional
[5] = target: Mu-type opioid receptor (Homo sapiens, UniProt P35372); type: functional, cell-based;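 also: U2OS cells with beta-arrestin recruitment to OPRM1 by beta-gal complementation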
Chain of Mu-type opioid receptor (P35372 whole entry): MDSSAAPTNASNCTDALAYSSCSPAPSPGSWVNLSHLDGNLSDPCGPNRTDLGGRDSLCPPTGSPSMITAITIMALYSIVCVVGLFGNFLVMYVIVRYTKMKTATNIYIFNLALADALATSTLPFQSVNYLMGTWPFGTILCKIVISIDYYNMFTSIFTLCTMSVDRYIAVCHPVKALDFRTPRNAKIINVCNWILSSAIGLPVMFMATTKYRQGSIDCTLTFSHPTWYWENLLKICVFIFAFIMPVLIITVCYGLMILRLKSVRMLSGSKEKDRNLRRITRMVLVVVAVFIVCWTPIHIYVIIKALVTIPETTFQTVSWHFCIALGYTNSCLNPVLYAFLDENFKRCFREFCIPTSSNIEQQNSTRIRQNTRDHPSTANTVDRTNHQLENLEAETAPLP

[6] = target: 5-hydroxytryptamine receptor 2A (Mus musculus, UniProt P35363); type: functional, cell-based;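 also: CHO-K1 cells with tagged receptor and beta-arrestin; agonist potency measured as compound-induced activation of the receptor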
Chain of 5-hydroxytryptamine receptor 2A (P35363 whole entry): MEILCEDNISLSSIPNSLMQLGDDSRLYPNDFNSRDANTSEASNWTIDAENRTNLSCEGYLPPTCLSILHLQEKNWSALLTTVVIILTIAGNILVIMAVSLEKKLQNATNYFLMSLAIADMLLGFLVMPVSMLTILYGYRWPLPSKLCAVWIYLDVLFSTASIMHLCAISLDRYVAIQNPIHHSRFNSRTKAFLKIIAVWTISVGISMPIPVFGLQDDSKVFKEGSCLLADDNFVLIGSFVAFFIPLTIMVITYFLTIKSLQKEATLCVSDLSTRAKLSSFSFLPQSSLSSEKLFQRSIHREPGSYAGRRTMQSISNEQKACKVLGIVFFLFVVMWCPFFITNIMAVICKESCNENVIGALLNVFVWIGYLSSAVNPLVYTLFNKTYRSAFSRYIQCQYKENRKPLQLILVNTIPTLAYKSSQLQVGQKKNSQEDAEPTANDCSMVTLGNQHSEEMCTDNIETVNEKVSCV

[7] = target: T1, Orexin/Hypocretin receptor type 1 (Homo sapiens, UniProt O43613); experiment: Homogeneous Time Resolved Fluorescence (HTRF)-based cell-based high throughput dose response assay for antagonists of the orexin 1 receptor (OX1R; HCRTR1). [Related pubchem assays (depositor defined):AID434989, AID435008, AID463079, AID485270, AID492963, AID492964, AID492965, AID493232, AID504717, AID504718]; type: functional
T1 sequence (O43613 whole entry): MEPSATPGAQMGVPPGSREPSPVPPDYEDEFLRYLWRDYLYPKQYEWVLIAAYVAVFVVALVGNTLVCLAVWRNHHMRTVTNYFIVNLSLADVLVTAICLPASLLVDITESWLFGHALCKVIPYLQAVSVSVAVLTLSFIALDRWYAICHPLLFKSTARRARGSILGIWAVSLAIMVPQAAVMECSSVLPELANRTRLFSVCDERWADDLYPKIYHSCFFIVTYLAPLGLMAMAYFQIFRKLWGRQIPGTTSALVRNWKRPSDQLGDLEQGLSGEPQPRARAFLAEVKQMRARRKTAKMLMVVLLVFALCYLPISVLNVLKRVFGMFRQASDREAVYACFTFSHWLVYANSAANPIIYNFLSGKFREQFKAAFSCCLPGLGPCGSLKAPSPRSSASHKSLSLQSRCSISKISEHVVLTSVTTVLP

[8] = target: T2, Orexin receptor type 2 (Homo sapiens, UniProt O43614); experiment: Counterscreen assay for antagonists of the orexin 1 receptor (OX1R; HCRTR1): Homogeneous Time Resolved Fluorescence (HTRF)-based cell-based dose response assay for antagonists of the orexin 2 receptor (OX2R; HCRTR2), run by assay provider.; type: functional
T2 sequence (O43614 whole entry): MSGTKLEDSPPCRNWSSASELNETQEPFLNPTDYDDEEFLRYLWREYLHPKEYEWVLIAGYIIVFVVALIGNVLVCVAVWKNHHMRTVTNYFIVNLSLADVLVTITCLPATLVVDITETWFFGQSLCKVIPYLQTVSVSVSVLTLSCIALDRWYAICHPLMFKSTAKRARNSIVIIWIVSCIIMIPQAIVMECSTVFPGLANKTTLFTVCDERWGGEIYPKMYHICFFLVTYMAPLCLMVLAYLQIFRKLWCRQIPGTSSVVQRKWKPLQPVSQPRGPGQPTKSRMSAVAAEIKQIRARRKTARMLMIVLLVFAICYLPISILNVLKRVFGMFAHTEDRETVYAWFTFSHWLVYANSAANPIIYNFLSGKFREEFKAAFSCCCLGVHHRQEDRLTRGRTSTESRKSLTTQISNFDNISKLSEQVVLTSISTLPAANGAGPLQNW

[9] = Counterscreen for antagonists of the orexin 1 receptor (OX1R; HCRTR1): Fluorescence-based cell-based high throughput dose response assay to identify antagonists of the parental CHO cell line. [Related pubchem assays (depositor defined):AID434989, AID435008, AID463079, AID485270, AID492963, AID492964, AID492965, AID493232, AID504699, AID504701]; type: functional
[10] = test system: CHO-K1; experiment: Counterscreen for antagonists of the orexin 1 receptor (OX1R; HCRTR1): Homogeneous time resolved fluorescence (HTRF)-based cell-based dose response assay to identify antagonists of the parental CHO-K1 cell line. [Related pubchem assays (depositor defined):AID434989, AID435008, AID463079, AID485270, AID492963, AID492964, AID492965, AID493232, AID504699, AID504701]; type: functional; settings: Cricetulus griseus;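 also: potency for inhibition of ATP-stimulated IP1 production as antagonists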
[11] = target: T1, Orexin/Hypocretin receptor type 1; experiment: Fluorescence-based cell-based high throughput dose response assay for antagonists of the orexin 1 receptor (OX1R; HCRTR1). [Related pubchem assays (depositor defined):AID434989, AID435008, AID463079, AID485270, AID492963, AID492964, AID492965, AID493232, AID504717, AID504718]; type: functional
[12] = target: T2, Orexin receptor type 2; experiment: Counterscreen assay for antagonists of the orexin 1 receptor (OX1R; HCRTR1): Fluorescence-based cell-based dose response assay for antagonists of the orexin 2 receptor (OX2R; HCRTR2), run by assay provider.; type: functional
[13] = test system: INS1; experiment: INS-1E survival protection against cytokine death – cell-based, luminescence, retest, dose response (AID 449756); type: functional; settings: Rattus norvegicus;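 also: cell death triggered by IL-1 beta plus TNF-alpha plus IFN-gamma mixture; protective hits raise ATP signal compared with cytokine alone wells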
[14] = test system: HeLa; experiment: ATP-based viability loss in HeLa cells – cell-based, CellTiter-Glo luminescence, cherry-pick samples, cytotoxicity control for MITF activator project, dose response (AID 540259); type: functional; settings: Homo sapiens
[15] = target: Adenosylmethionine-8-amino-7-oxononanoate aminotransferase (Mycobacterium tuberculosis, UniProt P9WQ81); experiment: Mycobacterium tuberculosis BioA enzyme inhibitor Measured in Biochemical System Using Plate Reader - 2163-02_Inhibitor_Dose_CherryPick_Activity.; type: functional, Mycobacterium tuberculosis UT205
Chain of Adenosylmethionine-8-amino-7-oxononanoate aminotransferase (P9WQ81 whole entry): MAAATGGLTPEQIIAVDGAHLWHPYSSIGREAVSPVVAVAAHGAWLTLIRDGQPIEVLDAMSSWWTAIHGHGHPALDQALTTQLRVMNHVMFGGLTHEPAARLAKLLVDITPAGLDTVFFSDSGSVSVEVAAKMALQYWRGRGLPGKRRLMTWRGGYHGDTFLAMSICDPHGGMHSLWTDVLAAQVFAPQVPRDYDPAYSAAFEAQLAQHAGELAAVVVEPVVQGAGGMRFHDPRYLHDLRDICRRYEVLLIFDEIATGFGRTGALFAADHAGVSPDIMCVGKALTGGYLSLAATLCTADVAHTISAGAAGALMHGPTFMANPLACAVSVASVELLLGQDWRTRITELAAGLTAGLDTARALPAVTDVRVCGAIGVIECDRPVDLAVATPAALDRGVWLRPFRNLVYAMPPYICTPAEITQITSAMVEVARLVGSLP

[16] = target: Ras and Rab interactor 1/Tyrosine-protein kinase ABL1 (Homo sapiens, UniProt P00519+Q13671); type: functional;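 also: biochemical TR-FRET dose-response test measuring inhibition of binding between Rin1 and Abl proteins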
Chain of Ras and Rab interactor 1/Tyrosine-protein kinase ABL1 (P00519 whole entry): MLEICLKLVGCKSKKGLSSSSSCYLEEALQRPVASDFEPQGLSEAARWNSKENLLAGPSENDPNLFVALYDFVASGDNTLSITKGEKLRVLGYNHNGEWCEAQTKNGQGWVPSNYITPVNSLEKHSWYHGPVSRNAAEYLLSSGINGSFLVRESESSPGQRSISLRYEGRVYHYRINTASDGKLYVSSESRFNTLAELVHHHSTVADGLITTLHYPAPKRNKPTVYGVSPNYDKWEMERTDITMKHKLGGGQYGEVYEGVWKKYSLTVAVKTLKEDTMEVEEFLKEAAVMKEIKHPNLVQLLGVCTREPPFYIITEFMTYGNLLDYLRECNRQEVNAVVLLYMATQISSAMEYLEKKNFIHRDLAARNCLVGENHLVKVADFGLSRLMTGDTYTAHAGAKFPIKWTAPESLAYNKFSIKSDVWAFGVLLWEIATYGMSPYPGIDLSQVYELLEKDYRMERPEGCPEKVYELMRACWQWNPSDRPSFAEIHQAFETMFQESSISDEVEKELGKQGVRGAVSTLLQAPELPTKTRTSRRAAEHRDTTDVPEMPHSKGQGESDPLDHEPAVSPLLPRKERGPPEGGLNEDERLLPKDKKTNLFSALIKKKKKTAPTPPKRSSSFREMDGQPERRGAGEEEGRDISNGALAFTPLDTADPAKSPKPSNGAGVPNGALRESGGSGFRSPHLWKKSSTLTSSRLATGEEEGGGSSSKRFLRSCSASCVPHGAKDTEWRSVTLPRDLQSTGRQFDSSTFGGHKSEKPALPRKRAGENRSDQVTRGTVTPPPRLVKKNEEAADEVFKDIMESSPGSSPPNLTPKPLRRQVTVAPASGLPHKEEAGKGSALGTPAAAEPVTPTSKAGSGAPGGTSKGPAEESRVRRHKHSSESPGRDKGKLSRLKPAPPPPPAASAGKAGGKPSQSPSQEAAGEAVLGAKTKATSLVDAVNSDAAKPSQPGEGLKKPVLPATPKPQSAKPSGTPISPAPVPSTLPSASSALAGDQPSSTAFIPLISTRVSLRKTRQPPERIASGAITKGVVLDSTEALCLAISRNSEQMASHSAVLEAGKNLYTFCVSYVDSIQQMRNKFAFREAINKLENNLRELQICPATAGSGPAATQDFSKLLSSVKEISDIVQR
Chain of Ras and Rab interactor 1/Tyrosine-protein kinase ABL1 (Q13671 whole entry): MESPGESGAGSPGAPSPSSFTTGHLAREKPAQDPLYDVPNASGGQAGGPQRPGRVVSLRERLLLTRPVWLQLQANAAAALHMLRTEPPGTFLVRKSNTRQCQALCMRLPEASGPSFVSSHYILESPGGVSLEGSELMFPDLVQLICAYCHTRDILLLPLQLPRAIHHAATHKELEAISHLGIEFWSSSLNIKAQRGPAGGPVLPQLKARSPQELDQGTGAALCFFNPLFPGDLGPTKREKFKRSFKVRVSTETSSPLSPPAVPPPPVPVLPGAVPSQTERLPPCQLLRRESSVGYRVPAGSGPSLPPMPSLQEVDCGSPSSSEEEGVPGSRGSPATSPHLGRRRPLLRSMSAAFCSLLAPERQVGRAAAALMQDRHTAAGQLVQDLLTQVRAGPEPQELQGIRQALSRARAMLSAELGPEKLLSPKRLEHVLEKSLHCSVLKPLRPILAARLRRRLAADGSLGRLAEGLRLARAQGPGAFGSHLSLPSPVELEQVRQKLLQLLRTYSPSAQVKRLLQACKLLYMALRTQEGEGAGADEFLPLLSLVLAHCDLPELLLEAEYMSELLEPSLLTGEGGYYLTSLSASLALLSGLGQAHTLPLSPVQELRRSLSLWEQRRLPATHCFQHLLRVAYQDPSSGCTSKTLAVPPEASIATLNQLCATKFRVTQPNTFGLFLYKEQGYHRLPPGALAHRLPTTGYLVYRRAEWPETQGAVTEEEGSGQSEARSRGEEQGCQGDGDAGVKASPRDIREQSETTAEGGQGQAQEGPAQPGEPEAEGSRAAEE

[17] = nonselective StAR promoter luciferase inhibitors – cell-based, luminescence, luciferase reporter, counter-screen for LRH-1 inverse agonist project, dose response (AID 651969); type: functional
[18] = target: Nuclear receptor subfamily 5 group A member 2 (Homo sapiens, UniProt O00482); type: functional, cell-based;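 also: HEK293T cells transfected with LRH-1 and a StAR promoter luciferase reporter; potency for inhibitors that lower LRH-1 driven reporter light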
Chain of Nuclear receptor subfamily 5 group A member 2 (O00482 whole entry): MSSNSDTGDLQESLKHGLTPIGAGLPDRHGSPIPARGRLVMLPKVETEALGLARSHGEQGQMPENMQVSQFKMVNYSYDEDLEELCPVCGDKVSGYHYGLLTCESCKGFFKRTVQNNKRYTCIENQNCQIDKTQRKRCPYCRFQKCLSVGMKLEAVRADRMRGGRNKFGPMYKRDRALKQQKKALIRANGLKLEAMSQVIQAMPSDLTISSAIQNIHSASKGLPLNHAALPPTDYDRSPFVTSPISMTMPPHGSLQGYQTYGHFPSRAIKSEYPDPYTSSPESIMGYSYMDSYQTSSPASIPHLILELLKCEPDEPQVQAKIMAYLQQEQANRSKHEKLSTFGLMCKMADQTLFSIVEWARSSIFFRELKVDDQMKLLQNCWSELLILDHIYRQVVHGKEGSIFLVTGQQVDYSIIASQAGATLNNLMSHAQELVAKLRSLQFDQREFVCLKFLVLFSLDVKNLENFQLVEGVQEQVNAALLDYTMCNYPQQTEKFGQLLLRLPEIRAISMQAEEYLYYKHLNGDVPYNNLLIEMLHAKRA

[19] = target: Steroidogenic factor 1 (Homo sapiens, UniProt Q13285); experiment: Counterscreen for inverse agonists of the liver receptor homolog-1 (LRH-1; NR5A2): Luminescence-based cell-based high throughput dose response assay to identify inverse agonists of the Steroidogenic Factor 1 Nuclear Receptor (SF1; NR5A1).; type: functional
[20] = cAMP pathway inhibition in counterscreen cell line – TR-FRET cAMP detection, counter-screen for MC4R biased antagonist project, dose response (AID 602305); type: functional, cell-based;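 also: U2OS cells stimulated with forskolin near its EC80 as the cAMP inducer; potency is for inhibition of forskolin-stimulated cAMP signaling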
[21] = Luminescence Cell-Based Dose Retest to Confirm Inhibitors of Cancer Stem Cells. [Related pubchem assays (depositor defined):AID2717, AID2721]; type: functional; settings: Homo sapiens
[22] = target: Melanocortin receptor 4 (Homo sapiens, UniProt P32245); experiment: inhibitors of MC4R cAMP signaling – cell-based, TR-FRET, biased antagonists, dose response (AID 602298); type: functional;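 also: antagonist potency against agonist-stimulated cAMP production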
Chain of Melanocortin receptor 4 (P32245 whole entry, the tested form may be a part): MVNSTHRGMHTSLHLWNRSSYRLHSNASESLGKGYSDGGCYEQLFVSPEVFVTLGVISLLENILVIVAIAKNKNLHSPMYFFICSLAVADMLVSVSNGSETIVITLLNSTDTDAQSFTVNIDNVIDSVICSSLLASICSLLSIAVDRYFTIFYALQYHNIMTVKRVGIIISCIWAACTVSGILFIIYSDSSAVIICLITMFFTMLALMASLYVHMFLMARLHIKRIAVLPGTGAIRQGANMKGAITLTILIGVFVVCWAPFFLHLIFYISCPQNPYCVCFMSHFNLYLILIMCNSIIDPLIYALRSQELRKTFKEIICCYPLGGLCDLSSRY

[23] = target: Photoreceptor-specific nuclear receptor (Homo sapiens, UniProt Q9Y5X4); type: functional, cell-based;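 also: CHO-S cells with Gal4-NCOR and VP16-NR2E3 two-hybrid luciferase reporter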
Chain of Photoreceptor-specific nuclear receptor (Q9Y5X4 whole entry, the tested form may be a part): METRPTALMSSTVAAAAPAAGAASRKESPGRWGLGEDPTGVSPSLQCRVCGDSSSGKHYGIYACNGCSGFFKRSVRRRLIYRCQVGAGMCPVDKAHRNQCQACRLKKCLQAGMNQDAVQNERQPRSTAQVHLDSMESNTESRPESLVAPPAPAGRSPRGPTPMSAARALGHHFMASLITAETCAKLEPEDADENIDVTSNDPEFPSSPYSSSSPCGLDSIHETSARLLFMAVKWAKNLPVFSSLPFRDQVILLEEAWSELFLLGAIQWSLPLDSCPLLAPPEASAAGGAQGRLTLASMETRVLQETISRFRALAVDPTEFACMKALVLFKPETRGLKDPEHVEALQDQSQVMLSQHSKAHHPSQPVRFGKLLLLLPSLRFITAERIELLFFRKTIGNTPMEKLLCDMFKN

[24] = target: FAD-linked sulfhydryl oxidase ALR (Homo sapiens, UniProt P55789); experiment: ALR-catalysed DTT oxidation blockers – biochemical, H2O2 detection, luminescence, cherry-pick, dose response (AID 493248)
[25] = target: T3, Heat shock factor protein 1 (Mus musculus, UniProt P38532); experiment: decrease of HSF1-responsive luciferase luminescence – cell-based, NIH3T3, dose retest, confirmation (AID 2382); type: functional;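 also: NIH3T3 fibroblasts with HSF1-driven luciferase reporter stressed by proteasome inhibitor MG132; luminescence from HSF1-driven luciferase expression after 8 hours of MG132 stress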
T3 sequence (P38532 whole entry): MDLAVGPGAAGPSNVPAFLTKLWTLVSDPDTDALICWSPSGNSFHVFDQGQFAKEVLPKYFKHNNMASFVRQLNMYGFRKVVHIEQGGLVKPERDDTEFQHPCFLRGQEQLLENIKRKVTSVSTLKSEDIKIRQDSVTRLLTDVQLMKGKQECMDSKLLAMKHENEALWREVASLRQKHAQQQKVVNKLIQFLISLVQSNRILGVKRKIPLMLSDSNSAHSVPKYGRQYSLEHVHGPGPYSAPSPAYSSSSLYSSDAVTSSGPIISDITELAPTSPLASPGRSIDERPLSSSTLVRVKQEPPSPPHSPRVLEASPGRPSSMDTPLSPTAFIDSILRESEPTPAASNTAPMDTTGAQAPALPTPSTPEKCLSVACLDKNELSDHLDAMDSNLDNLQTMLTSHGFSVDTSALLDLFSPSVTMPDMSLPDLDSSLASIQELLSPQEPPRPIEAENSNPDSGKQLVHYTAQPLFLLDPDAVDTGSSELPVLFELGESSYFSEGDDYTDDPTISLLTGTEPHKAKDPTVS

[26] = Luminescence Cell-Based Dose Confirmation HTS to Identify Inhibitors of Platelet Dense Granule Release. [Related pubchem assays: 1663 (Primary HTS), 1678 (Summary of Project)]; type: functional
[27] = inhibition of ARNT PAS-B/TACC3 complex formation – biochemical, AlphaScreen, cherry-picked samples, confirmation (AID 651703); type: functional, Homo sapiens;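 also: His-tagged ARNT PAS-B domain paired with GST-TACC3 E629A dimer coactivator fragment; potency of inhibitors that break up the complex and lower AlphaScreen signal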
[28] = target: Luciferin 4-monooxygenase (Photinus pyralis, UniProt P08659); experiment: inhibition of purified Photinus pyralis luciferase – biochemical, luminescence, dose response (AID 1891)

Chain of Protein Wnt-3a (P27467 whole entry): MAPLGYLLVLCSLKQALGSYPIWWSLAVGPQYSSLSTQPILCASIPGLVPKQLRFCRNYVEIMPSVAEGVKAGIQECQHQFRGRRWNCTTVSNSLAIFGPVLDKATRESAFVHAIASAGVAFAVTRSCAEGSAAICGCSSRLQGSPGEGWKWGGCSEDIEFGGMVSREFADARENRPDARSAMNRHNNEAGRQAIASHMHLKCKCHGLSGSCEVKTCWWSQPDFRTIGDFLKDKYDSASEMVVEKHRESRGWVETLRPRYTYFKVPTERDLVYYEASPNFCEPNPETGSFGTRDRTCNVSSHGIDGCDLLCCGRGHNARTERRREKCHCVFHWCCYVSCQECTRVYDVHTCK

Cc1cc(Br)c(S(=O)(=O)NCc2ccncc2)cc1C
IC50 [1]: 3.16 µM (active) | AC50 [2]: 2.37 µM (active) | AC50 [3]: 1.41 µM (active) | AC50 [4]: 3.34 µM (active)

Brc1ccc(CN2CCN(c3ccccn3)CC2)s1
EC50 [5]: 92.5 µM (inactive) | EC50 [6]: 0.0705 µM (active)

Cc1c(NS(=O)(=O)c2cccc(C(=O)OCC(=O)N(C)C3CCCCC3)c2)c(=O)n(-c2ccccc2)n1C
IC50 [7]: 0.142 µM (active) | IC50 [8]: 0.8 µM (active) | IC50 [9]: > 49.7 µM (inactive) | IC50 [10]: > 66.2 µM (inactive) | IC50 [11]: 2.42 µM (active) | IC50 [12]: 1.2 µM (active)

CCCC(C)C(=O)Nc1nc(C)c(-c2csc(Nc3ccc(Cl)cc3)n2)s1 (centres undefined)
IC50 [1]: 13.8 µM (active) | AC50 [13]: 4.18 µM (active)

COc1cccc(-c2cc(C(=O)Nc3ccccc3SC)no2)c1
IC50 [7]: 1.91 µM (active) | IC50 [8]: > 50 µM (inactive) | IC50 [9]: > 49.7 µM (inactive) | IC50 [10]: > 66.2 µM (inactive) | IC50 [11]: 3.59 µM (active) | IC50 [12]: > 88.8 µM (inactive) | AC50 [14]: 97.5 µM (active)

Cc1cccc(C)c1OCC(O)CN1CCN(c2ccccc2)CC1 (centres undefined)
EC50 [5]: 92.5 µM (inactive) | EC50 [6]: 76.1 µM (inactive)

O=C(Cc1ccccc1)N1CC[C@@H]2[C@H](CO)Nc3ccc(Br)cc3[C@@H]21
AC50 [15]: 3.09 µM (active)

CN(Cc1ccccc1)S(=O)(=O)c1ccc(Cl)c(C(=O)N2CCC2)c1
IC50 [16]: 32.9 µM (inactive)

COc1ccc(CCNC(=O)c2ccc(NC3=NC4CS(=O)(=O)CC4S3)cc2)cc1OC (centres undefined)
IC50 [16]: 26.3 µM (inactive)

Cc1nc2cc(-c3nc4ccccc4o3)ccc2[nH]1
IC50 [7]: 1.06 µM (active) | IC50 [8]: > 50 µM (inactive) | IC50 [9]: > 49.8 µM (inactive) | IC50 [10]: > 66.2 µM (inactive) | IC50 [11]: 6.1 µM (active) | IC50 [12]: > 88.8 µM (inactive)

COc1ccc(C(C)NC(=O)Nc2ccc(C(C)=O)cc2)cc1OC (centres undefined)
AC50 [15]: 3.72 µM (active)

COc1ccnc(Oc2ccccc2)c1C(=O)N=CNOCc1ccccc1F
IC50 [17]: 26.1 µM (inactive) | IC50 [18]: 3.99 µM (active) | IC50 [19]: 3.65 µM (active)

O=C(Nc1ccccc1N1CCCCC1)c1ccc(Cl)c([N+](=O)[O-])c1
IC50 [20]: > 64.6 µM (inactive) | AC50 [21]: 3.19 µM (active) | IC50 [22]: > 64.6 µM (inactive)

O=C(OCCOc1ccc(Cl)cc1)c1cc(S(=O)(=O)N2CCCCC2)ccc1N1CCOCC1
AC50 [2]: > 70 µM (inactive) | AC50 [3]: 1.97 µM (active) | IC50 [23]: 4.3 µM (active) | AC50 [4]: 6.64 µM (active)

c1ccc(CNc2ncnc3sccc23)cc1
IC50 [23]: 3.7 µM (active)

NNC(=O)c1ccc(O)cc1O
AC50 [24]: 16 µM (active) | EC50 [25]: > 195 µM (not active) | EC50 [26]: > 112 µM (not active) | AC50 [27]: 91.8 µM (active) | EC50 [28]: > 112 µM (not active)

O=C(Nc1ccc(C(=O)N2CCOCC2)cc1)c1cccc([N+](=O)[O-])c1
IC50 [17]: 35.9 µM (inactive) | IC50 [18]: 15 µM (inactive) | IC50 [19]: 1.09 µM (active)

COc1cc(-c2nc3ccc4ccccc4c3c3c2CCC3)cc(OC)c1OC
IC50 [20]: > 64.6 µM (inactive) | IC50 [22]: 43.1 µM (inactive)
